{
  "source": "patent US20090023813A1",
  "about": "“Diphenyl Urea Derivatives” (Arpida AG, priority 2005, published 2009)",
  "format_in_all_cases": "cell-based",
  "key": {"B. distasonis 5770": {"test_system": "B. distasonis 5770", "assay": "Antimicrobial susceptibility testing of anaerobic bacteria (microbroth dilution, Wilkins Chalgren Broth)", "settings": "Parabacteroides distasonis, representative pathogens for gastro-intestinal infections, read-out: Minimum Inhibitory Concentration (MIC) B. distasonis 5770", "description": "(§1) Antimicrobial susceptibility testing was performed in accordance with the Clinical and Laboratory Standards Institute (CLSI). Streptococci (S. pneumoniae, S. pyogenes, S. viridans) were tested following the CLSI methodology with the exception that Todd Hewitt Broth without blood was used. Anaerobic bacteria (P. acnes, B. distasonis) were tested following CLSI (formerly NCCLS) guidelines except for using microbroth dilutions in Wilkins Chalgren Broth. National Committee for Clinical Laboratory Standards (NCCLS). Methods for Anti-microbial Susceptibility Testing of Anaerobic Bacteria; Approved Standard—Sixth Edition (2004). NCCLS document M11-A6."}, "P. acnes 6390": {"test_system": "P. acnes 6390", "assay": "Antimicrobial susceptibility testing of anaerobic bacteria (microbroth dilution, Wilkins Chalgren Broth)", "settings": "Cutibacterium acnes, representative pathogens for skin infections, read-out: Minimum Inhibitory Concentration (MIC) P. acnes 6390", "description": "as §1"}, "S. aureus ATCC 25923": {"test_system": "S. aureus ATCC 25923", "assay": "Antimicrobial susceptibility testing (CLSI broth dilution MIC)", "settings": "Staphylococcus aureus, ATCC25923", "description": "(§2) Antimicrobial susceptibility testing was performed in accordance with the Clinical and Laboratory Standards Institute (CLSI).\n(§3) Clinical and Laboratory Standards Institute (CLSI; formerly NCCLS): Methods for Dilution Antimicrobial Susceptibility Tests for Bacteria That Grow Aerobically; Approved Standard—Seventh Edition (2006). Clinical and Laboratory Standards Institute document M7-A7."}, "E. faecalis VanB E80-8": {"test_system": "E. faecalis VanB E80-8", "assay": "Antimicrobial susceptibility testing (CLSI broth dilution MIC)", "settings": "for MIC: Enterococcus faecalis, VANBE808, representative pathogens for skin infections, read-out: Minimum Inhibitory Concentration (MIC) E. faecalis VanB E80-8; for Minimum Inhibitory Concentration (MIC) E. faecalis VanB E80-8: representative pathogens for gastro-intestinal infections", "description": "as §2, §3"}, "S. aureus MRSA 101": {"test_system": "S. aureus MRSA 101", "assay": "Antimicrobial susceptibility testing (CLSI broth dilution MIC)", "settings": "Staphylococcus aureus", "description": "as §2, §3"}, "S. aureus MRSA 39": {"test_system": "S. aureus MRSA 39", "assay": "Antimicrobial susceptibility testing (CLSI broth dilution MIC)", "settings": "for MIC: Staphylococcus aureus, MRSA, representative pathogens for nasal colonization, read-out: Minimum Inhibitory Concentration (MIC) S. aureus MRSA 39", "description": "as §2, §3"}, "S. epidermidis MRSE 70": {"test_system": "S. epidermidis MRSE 70", "assay": "Antimicrobial susceptibility testing (CLSI broth dilution MIC)", "settings": "for MIC: Staphylococcus epidermidis, MRSE, representative pathogens for nasal colonization, read-out: Minimum Inhibitory Concentration (MIC) S. epidermidis MRSE 70", "description": "as §2, §3"}, "S. pyogenes GAS-1": {"test_system": "S. pyogenes GAS-1", "assay": "Antimicrobial susceptibility testing of streptococci (CLSI, Todd Hewitt Broth without blood)", "settings": "for MIC: Streptococcus pyogenes, GAS1, representative pathogens for ocular infections, read-out: Minimum Inhibitory Concentration (MIC) S. pyogenes GAS-1; for Minimum Inhibitory Concentration (MIC) S. pyogenes GAS-1: representative pathogens for skin infections", "description": "as §1, with “(CLSI). Clinical and Laboratory Standards Institute (CLSI; formerly NCCLS): Methods for Dilution Antimicrobial Susceptibility Tests for Bacteria That Grow Aerobically; Approved Standard—Seventh Edition (2006). Clinical and Laboratory Standards Institute document M7-A7.” for “(CLSI).”"}, "S. viridans UHC7": {"test_system": "S. viridans UHC7", "assay": "Antimicrobial susceptibility testing of streptococci (CLSI, Todd Hewitt Broth without blood)", "settings": "Streptococcus viridans, representative pathogens for dental infections, read-out: Minimum Inhibitory Concentration (MIC) S. viridans UHC7", "description": "as §1, with “(CLSI). Clinical and Laboratory Standards Institute (CLSI; formerly NCCLS): Methods for Dilution Antimicrobial Susceptibility Tests for Bacteria That Grow Aerobically; Approved Standard—Seventh Edition (2006). Clinical and Laboratory Standards Institute document M7-A7.” for “(CLSI).”"}, "S. pneumoniae 1/1": {"test_system": "S. pneumoniae 1/1", "assay": "Antimicrobial susceptibility testing of streptococci (CLSI, Todd Hewitt Broth without blood)", "settings": "Streptococcus pneumoniae, representative pathogens for ocular infections, read-out: Minimum Inhibitory Concentration (MIC) S. pneumoniae 1/1", "description": "as §1, with “(CLSI). Clinical and Laboratory Standards Institute (CLSI; formerly NCCLS): Methods for Dilution Antimicrobial Susceptibility Tests for Bacteria That Grow Aerobically; Approved Standard—Seventh Edition (2006). Clinical and Laboratory Standards Institute document M7-A7.” for “(CLSI).”"}, "[1]": {"settings": "representative pathogens for nasal colonization, read-out: Minimum Inhibitory Concentration (MIC) S. aureus ATCC 25923"}, "[2]": {"settings": "representative pathogens for ocular infections, read-out: Minimum Inhibitory Concentration (MIC) S. aureus 25923"}, "[3]": {"settings": "representative pathogens for nasal colonization, read-out: Minimum Inhibitory Concentration (MIC) S. aureus MRSA 101"}, "[4]": {"settings": "representative pathogens for ocular infections, read-out: Minimum Inhibitory Concentration (MIC) S. aureus MRSA101"}, "[5]": {"settings": "representative pathogens for ocular infections"}, "[6]": {"settings": "representative pathogens for skin infections"}},
  "note": "Where two headings read alike, the source gives them in different places.",
  "data": [
    {"molecule": "O=C(Nc1cc(Cl)cc(C(F)(F)F)c1)Nc1ccc(Cl)c(C(F)(F)F)c1", "note": "[Example 2, 1-(3-Chloro-5-trifluoromethyl-phenyl)-3-(4-chloro-3-trifluoromethyl-phenyl)-urea]", "values": [
      {"measurement": "MIC", "setting": "B. distasonis 5770", "result": 1, "unit": "µg/mL"},
      {"measurement": "MIC", "setting": "P. acnes 6390", "result": "≤ 0.03", "unit": "µg/mL"},
      {"measurement": "MIC", "setting": "S. aureus ATCC 25923; [1]", "result": 0.25, "unit": "µg/mL"},
      {"measurement": "MIC", "setting": "S. aureus ATCC 25923; [2]", "result": 0.25, "unit": "µg/mL"},
      {"measurement": "MIC", "setting": "E. faecalis VanB E80-8", "result": 1, "unit": "µg/mL"},
      {"measurement": "Minimum Inhibitory Concentration (MIC) E. faecalis VanB E80-8", "setting": "E. faecalis VanB E80-8", "result": 1, "unit": "micrograms/ml"},
      {"measurement": "MIC", "setting": "S. aureus MRSA 101; [3]", "result": 0.125, "unit": "µg/mL"},
      {"measurement": "MIC", "setting": "S. aureus MRSA 101; [4]", "result": 0.125, "unit": "µg/mL"},
      {"measurement": "MIC", "setting": "S. aureus MRSA 39", "result": 0.25, "unit": "µg/mL"},
      {"measurement": "Minimum Inhibitory Concentration (MIC) S. aureus MRSA 39", "setting": "S. aureus MRSA 39; [5]", "result": 0.25, "unit": "micrograms/ml"},
      {"measurement": "Minimum Inhibitory Concentration (MIC) S. aureus MRSA 39", "setting": "S. aureus MRSA 39; [6]", "result": 0.25, "unit": "micrograms/ml"},
      {"measurement": "MIC", "setting": "S. epidermidis MRSE 70", "result": 0.25, "unit": "µg/mL"},
      {"measurement": "Minimum Inhibitory Concentration (MIC) S. epidermidis MRSE 70", "setting": "S. epidermidis MRSE 70; [5]", "result": 0.25, "unit": "micrograms/ml"},
      {"measurement": "Minimum Inhibitory Concentration (MIC) S. epidermidis MRSE 70", "setting": "S. epidermidis MRSE 70; [6]", "result": 0.25, "unit": "micrograms/ml"},
      {"measurement": "MIC", "setting": "S. pyogenes GAS-1", "result": 0.25, "unit": "µg/mL"},
      {"measurement": "Minimum Inhibitory Concentration (MIC) S. pyogenes GAS-1", "setting": "S. pyogenes GAS-1", "result": 0.25, "unit": "micrograms/ml"},
      {"measurement": "MIC", "setting": "S. viridans UHC7", "result": 0.5, "unit": "µg/mL"},
      {"measurement": "MIC", "setting": "S. pneumoniae 1/1", "result": 0.06, "unit": "µg/mL"}
    ]},
    {"molecule": "O=C(Nc1cc(Br)cc(C(F)(F)F)c1)Nc1ccc(Cl)c(C(F)(F)F)c1", "note": "[Example 1, 1-(3-Bromo-5-trifluoromethyl-phenyl)-3-(4-chloro-3-trifluoromethyl-phenyl)-urea]", "values": [
      {"measurement": "MIC", "setting": "B. distasonis 5770", "result": 0.5, "unit": "µg/mL"},
      {"measurement": "MIC", "setting": "P. acnes 6390", "result": "≤ 0.03", "unit": "µg/mL"},
      {"measurement": "MIC", "setting": "S. aureus ATCC 25923; [1]", "result": 0.5, "unit": "µg/mL"},
      {"measurement": "MIC", "setting": "S. aureus ATCC 25923; [2]", "result": 0.5, "unit": "µg/mL"},
      {"measurement": "MIC", "setting": "E. faecalis VanB E80-8", "result": 2, "unit": "µg/mL"},
      {"measurement": "Minimum Inhibitory Concentration (MIC) E. faecalis VanB E80-8", "setting": "E. faecalis VanB E80-8", "result": 2, "unit": "micrograms/ml"},
      {"measurement": "MIC", "setting": "S. aureus MRSA 101; [3]", "result": 0.125, "unit": "µg/mL"},
      {"measurement": "MIC", "setting": "S. aureus MRSA 101; [4]", "result": 0.125, "unit": "µg/mL"},
      {"measurement": "MIC", "setting": "S. aureus MRSA 39", "result": 0.25, "unit": "µg/mL"},
      {"measurement": "Minimum Inhibitory Concentration (MIC) S. aureus MRSA 39", "setting": "S. aureus MRSA 39; [5]", "result": 0.25, "unit": "micrograms/ml"},
      {"measurement": "Minimum Inhibitory Concentration (MIC) S. aureus MRSA 39", "setting": "S. aureus MRSA 39; [6]", "result": 0.25, "unit": "micrograms/ml"},
      {"measurement": "MIC", "setting": "S. epidermidis MRSE 70", "result": 0.25, "unit": "µg/mL"},
      {"measurement": "Minimum Inhibitory Concentration (MIC) S. epidermidis MRSE 70", "setting": "S. epidermidis MRSE 70; [5]", "result": 0.25, "unit": "micrograms/ml"},
      {"measurement": "Minimum Inhibitory Concentration (MIC) S. epidermidis MRSE 70", "setting": "S. epidermidis MRSE 70; [6]", "result": 0.25, "unit": "micrograms/ml"},
      {"measurement": "MIC", "setting": "S. pyogenes GAS-1", "result": 0.25, "unit": "µg/mL"},
      {"measurement": "Minimum Inhibitory Concentration (MIC) S. pyogenes GAS-1", "setting": "S. pyogenes GAS-1", "result": 0.25, "unit": "micrograms/ml"},
      {"measurement": "MIC", "setting": "S. viridans UHC7", "result": 0.5, "unit": "µg/mL"},
      {"measurement": "MIC", "setting": "S. pneumoniae 1/1", "result": 0.125, "unit": "µg/mL"}
    ]},
    {"molecule": "FC(F)(F)c1cc(Br)cc(NC(=S)Nc2ccc(Cl)c(C(F)(F)F)c2)c1", "note": "[Example 3, 1-(3-Bromo-5-trifluoromethyl-phenyl)-3-(4-chloro-3-trifluoromethyl-phenyl)-thiourea]", "values": [
      {"measurement": "MIC", "setting": "B. distasonis 5770", "result": 1, "unit": "µg/mL"},
      {"measurement": "MIC", "setting": "P. acnes 6390", "result": "≤ 0.03", "unit": "µg/mL"},
      {"measurement": "MIC", "setting": "S. aureus ATCC 25923; [1]", "result": 0.125, "unit": "µg/mL"},
      {"measurement": "MIC", "setting": "S. aureus ATCC 25923; [2]", "result": 0.125, "unit": "µg/mL"},
      {"measurement": "MIC", "setting": "E. faecalis VanB E80-8", "result": 1, "unit": "µg/mL"},
      {"measurement": "Minimum Inhibitory Concentration (MIC) E. faecalis VanB E80-8", "setting": "E. faecalis VanB E80-8", "result": 1, "unit": "micrograms/ml"},
      {"measurement": "MIC", "setting": "S. aureus MRSA 101; [3]", "result": 0.5, "unit": "µg/mL"},
      {"measurement": "MIC", "setting": "S. aureus MRSA 101; [4]", "result": 0.5, "unit": "µg/mL"},
      {"measurement": "MIC", "setting": "S. aureus MRSA 39", "result": 0.25, "unit": "µg/mL"},
      {"measurement": "Minimum Inhibitory Concentration (MIC) S. aureus MRSA 39", "setting": "S. aureus MRSA 39; [5]", "result": 0.25, "unit": "micrograms/ml"},
      {"measurement": "Minimum Inhibitory Concentration (MIC) S. aureus MRSA 39", "setting": "S. aureus MRSA 39; [6]", "result": 0.25, "unit": "micrograms/ml"},
      {"measurement": "MIC", "setting": "S. epidermidis MRSE 70", "result": 0.25, "unit": "µg/mL"},
      {"measurement": "Minimum Inhibitory Concentration (MIC) S. epidermidis MRSE 70", "setting": "S. epidermidis MRSE 70; [5]", "result": 0.25, "unit": "micrograms/ml"},
      {"measurement": "Minimum Inhibitory Concentration (MIC) S. epidermidis MRSE 70", "setting": "S. epidermidis MRSE 70; [6]", "result": 0.25, "unit": "micrograms/ml"},
      {"measurement": "MIC", "setting": "S. pyogenes GAS-1", "result": 0.25, "unit": "µg/mL"},
      {"measurement": "Minimum Inhibitory Concentration (MIC) S. pyogenes GAS-1", "setting": "S. pyogenes GAS-1", "result": 0.25, "unit": "micrograms/ml"},
      {"measurement": "MIC", "setting": "S. viridans UHC7", "result": 1, "unit": "µg/mL"},
      {"measurement": "MIC", "setting": "S. pneumoniae 1/1", "result": 0.25, "unit": "µg/mL"}
    ]}
  ]
}
